Measured values taken from patent US20260183350A1, “ANTIBIOTIC-RESISTANT BACTERIA” (priority 2022, published 2026).

What was measured:
[1] = tested on: vancomycin-resistant E. faecalis; experiment: VRE nutrient utilization protocol: nitrogen sources, leave-one-out; format: cell-based, Enterococcus faecalis; details: aerobic; leave-one-out from nitrogen source mixture in minimal medium
Procedure: (§1) VRE minimal media consists of potassium phosphate monobasic (4 g/L), potassium phosphate dibasic (14 g/L), sodium citrate (1 g/L), magnesium sulphate (0.2 g/L), ammonium sulphate (2 g/L), adenosine (0.04 g/L), thymine (0.04 g/L), Kao and Michayluk vitamin solution [Sigma, K3129, 50× Stock](5×), glucose (1 g/L) and amino acid solution [Sigma, R7131, RPMI-1640, 50×](25×). If the study was performed under anaerobic conditions, fumarate (5.2 g/L) was added to increase growth of VRE strains. Carbon-free minimal media was prepared by leaving out glucose while nitrogen-free minimal media was prepared without the amino acid solution. Media was filter sterilized with a 0.22 micron filter and used immediately aerobically or degassed overnight if used anaerobically.
(§2) VRE strains were grown on R2A overnight before the cells were suspended in 0.9% saline to an OD of 0.38 (λ=595 nm). A 10% dilution of the cell suspension was prepared using VRE minimal media to achieve a final well OD of […] (λ=595 nm) greater than the sterile media OD. Both carbon and nitrogen source utilization were evaluated by adding the inoculated media and a filter-sterilised nutrient source solution into a well in a 1:1 ration to a final volume of 100 μL in aerobic tests and 200 μL in anaerobic tests. Carbon sources were tested individually and compared to a carbon-free control. To test nitrogen source utilization, a nitrogen source solution was prepared containing L-alanine (2 g/L), L-arginine (2.5 g/L, L-asparagine (0.71 g/L), L-aspartate (0.25 g/L), L-cysteine (0.625 g/L), L-glutamate (0.25 g/L), L-Glycine (0.125 g/L), L-histidine (0.1875 g/L), L-isoleucine (0.625 g/L), L-leucine (0.625 g/L), L-lysine HCl (0.5 g/L), L-methionine (0.1875 g/L), L-phenylalanine (0.1875 g/L), L-proline (0.25 g/L), L-serine (0.375 g/L), L-threonine (0.25 g/L), L-tryptophan (0.0625 g/L), L-tyrosine (0.29 g/L), L-valine (0.25 g/L), N-acetylglucosamine (2 g/L), and uracil (2.5 g/L). To test the strains' ability to utilize individual nitrogen sources, separate solutions were prepared eliminating one nitrogen source each. The change in growth compared to the complete nitrogen source solution control was used to determine nitrogen utilization. All carbon and nitrogen sources were tested in a technical triplicate for each biological replicate. Aerobic plates were incubated with a plate seal while anaerobic plates were not. The aerobic plate reader was set to read the plate (λ=595 nm, 37° C., 22 flashes per well, orbital shaking of 100 rpm for 15 s prior to each read) every 15 minutes for 24 hours. The anaerobic plate reader read the plate (λ=595 nm, 37° C., stationary) every 15 minutes for 24 hours.

[2] = tested on: NDM-1 Enterobacter cloacae; experiment: Carbon utilisation assay; format: cell-based; details: aerobic; M9 minimal medium, 0.5% (w/v) carbon source
Procedure: (§3) New Delhi Metallo-β-lactamase 1 (NDM-1) Escherichia coli, NDM-1 Klebsiella pneumoniae, and NDM-1 Enterobacter cloacae were isolated from patients with intestinal CRE colonisation from the Imperial College Healthcare NHS Trust via rectal swab (REC ref. 19/LO/0112). The species were assigned by matrix assisted laser desorption ionization-time of flight (MALDI-TOF) mass spectrometry and later confirmed with 16S rRNA gene sequencing. CRE status was determined using X-pert Carba-R PCR detection (Cepheid, Sunnyvale, CA, USA), (Otter, J. A. et al. Detecting carbapenemase-producing Enterobacterales (CPE): an evaluation of an enhanced CPE infection control and screening programme in acute care. J Antimicrob Chemother 75, 2670-2676 (2020)).
(§4) Growth of CRE isolates on sole carbon or nitrogen sources was tested by inoculating each CRE isolate into a minimal medium supplemented with the nutrient of interest. First, CRE isolates were passaged from frozen glycerol stocks on Reasoner's 2A agar (R2A) plates. Cells were then suspended in M9 minimal media to a turbidity of 42% using a Turbidimeter (Biolog Inc.), then diluted a further 1 in 6 to inoculate the carbon or nitrogen utilisation assays. M9 minimal media contained the following (at final concentrations): 22 mM KH2PO4, 42 mM Na2HPO4, 9 mM NaCl, 0.49 mM MgSO4·7H2O, 0.09 mM CaCl2), 0.011 mM FeSO4·7H2O. For the carbon assays the M9 minimal medium was also supplemented with 0.1% (w/v) NH4Cl (as the nitrogen source) and the carbon sources were individually tested at 0.5% (w/v) concentration. For the nitrogen assays the M9 minimal medium was also supplemented with 0.5% (w/v) glucose (as the carbon source) and the nitrogen sources were individually tested at 0.1% (w/v) concentration. Cultures were incubated anaerobically and aerobically in a plate reader and OD600 readings were collected every 15 minutes for 24 hours.
(§5) Growth curves were analysed in Python (v3.6.5) using the AMiGA software (Midani, F. S., Collins, J. & Britton, R. A. AMiGA: Software for Automated Analysis of Microbial Growth Assays. mSystems 6, e0050821 (2021)). Growth of each isolate was measured with 6 wells from 2-3 independent experiments. Growth curves were normalised to the no substrate control using the subtraction method. AMiGA performed Gaussian Process regression to test differential growth between the substrate and the no substrate control. The functional difference in the OD (and its credible interval) was also computed between the substrate and the no substrate control.

[3] = tested on: NDM-1 Klebsiella pneumoniae; experiment: Nutrient preference assay (nutrient mixture); format: cell-based; details: M9 with […] of each nutrient, up to 24 hours
Procedure: as §3
(§6) CRE isolates were passaged once from frozen glycerol stocks on R2A plates. Cells were suspended in M9 minimal media to a turbidity of 42% using a Turbidimeter (Biolog Inc.), then diluted 1 in 6 to inoculate the nutrient preference assays. M9 minimal media was supplemented with 0.015% of each of the following: L-arabinose, D-fructose, L-fucose, D-galactose, D-glucose, D-mannose, D-ribose, D-xylose, N-acetylglucosamine, D-maltose, sucrose, D-trehalose, L-alanine, L-arginine, L-aspartate, L-glutamate, L-glycine, L-isoleucine, L-leucine, L-lysine, L-methionine, L-phenylalanine, L-proline, L-threonine, L-tryptophan, L-tyrosine, L-valine, uracil, and succinate. Cultures were incubated anaerobically and aerobically in a plate reader and OD600 readings were collected every 15 minutes for 24 hours. Cultures were also incubated anaerobically and aerobically for 24 h and samples were collected at 0, 4, 8, and 24 hours post-inoculation for 1H-NMR spectroscopy. Changes in nutrients and metabolites by CRE isolates was compared to the sterile media control over time using a two-way mixed ANOVA followed by pairwise comparisons with Bonferroni correction. […]

[4] = tested on: NDM-1 Enterobacter cloacae; experiment: Nitrogen utilisation assay; format: cell-based; details: aerobic; M9 minimal medium with glucose, 0.1% (w/v) nitrogen source
Procedure: as §3, §4, §5

[5] = tested on: NDM-1 Klebsiella pneumoniae; experiment: Nitrogen utilisation assay; format: cell-based; details: aerobic; M9 minimal medium with glucose, 0.1% (w/v) nitrogen source
Procedure: as §3, §4, §5

[6] = tested on: NDM-1 Escherichia coli; experiment: Nitrogen utilisation assay; format: cell-based; details: M9 minimal medium with glucose, 0.1% (w/v) nitrogen source
Procedure: as §3, §4, §5

[7] = tested on: vancomycin-resistant E. faecium; experiment: VRE nutrient utilization protocol: nitrogen sources, leave-one-out; format: cell-based, Enterococcus faecium; details: aerobic; leave-one-out from nitrogen source mixture in minimal medium
Procedure: as §1, §2

[8] = tested on: NDM-1 Klebsiella pneumoniae; experiment: Carbon utilisation assay; format: cell-based; details: aerobic; M9 minimal medium, 0.5% (w/v) carbon source
Procedure: as §3, §4, §5

[9] = tested on: NDM-1 Enterobacter cloacae; experiment: Nutrient preference assay (nutrient mixture); format: cell-based; details: M9 with […] of each nutrient, up to 24 hours
Procedure: as §3, §6

[10] = tested on: NDM-1 Escherichia coli; experiment: Nutrient preference assay (nutrient mixture); format: cell-based; details: M9 with […] of each nutrient, up to 24 hours
Procedure: as §3, §6

| Structure (SMILES) | Use as nitrogen source to support E. faecalis growth [1] | Use as sole nitrogen source to support E. cloacae growth [4] | Use as sole nitrogen source to support K. pneumoniae growth [5] | Use as sole nitrogen source to support E. coli growth ([6]; aerobic) | Use as nitrogen source to support E. faecium growth [7] | Utilisation of nutrient by E. cloacae from nutrient mixture (1H-NMR) ([9]; aerobic) | Utilisation of nutrient by E. cloacae from nutrient mixture (1H-NMR) ([9]; anaerobic) | also measured |
| --- | --- | --- | --- | --- | --- | --- | --- | --- |
| N[C@@H](CS)C(=O)O [cysteine, L-cysteine] | could use |  |  |  |  |  |  |  |
| C[C@H](O)[C@@H](O)[C@@H](O)[C@H](O)C=O [fucose, L-fucose] |  |  |  |  |  |  |  | Use as sole carbon source to support E. cloacae growth [2]: able to grow; Utilisation of nutrient by K. pneumoniae from nutrient mixture (1H-NMR) ([3]; aerobic): not utilised; Utilisation of nutrient by K. pneumoniae from nutrient mixture (1H-NMR) ([3]; anaerobic): not utilised |
| NCC(=O)O [glycine, L-glycine] | could use | able to grow | able to grow | able to grow | could use |  |  |  |
| N[C@@H](Cc1c[nH]cn1)C(=O)O [histidine, L-histidine] | could use |  |  |  | could use |  |  |  |
| CC[C@H](C)[C@H](N)C(=O)O [isoleucine, L-isoleucine] | could use | able to grow | able to grow | able to grow | could use |  |  |  |
| CC(C)C[C@H](N)C(=O)O [leucine, L-leucine] | could use | able to grow | able to grow | able to grow | could use |  |  |  |
| N[C@@H](Cc1ccccc1)C(=O)O [phenylalanine, L-phenylalanine] |  | able to grow |  |  | could use |  |  |  |
| O=C(O)[C@@H]1CCCN1 [proline, L-proline] |  | able to grow | able to grow | able to grow |  | not utilised | not utilised | Use as sole carbon source to support K. pneumoniae growth [8]: able to grow; Utilisation of nutrient by K. pneumoniae from nutrient mixture (1H-NMR) ([3]; anaerobic): not utilised; Utilisation of nutrient by E. coli from nutrient mixture (1H-NMR) ([10]; aerobic): not utilised; Utilisation of nutrient by E. coli from nutrient mixture (1H-NMR) ([10]; anaerobic): not utilised |
| N[C@@H](CO)C(=O)O [serine, L-serine] | could use |  |  |  | could use |  |  |  |
| C[C@@H](O)[C@H](N)C(=O)O [threonine, L-threonine] |  | able to grow |  | able to grow | could use | high utilisation | high utilisation | Utilisation of nutrient by K. pneumoniae from nutrient mixture (1H-NMR) ([3]; aerobic): high utilisation; Utilisation of nutrient by E. coli from nutrient mixture (1H-NMR) ([10]; aerobic): moderate utilisation |
| N[C@@H](Cc1ccc(O)cc1)C(=O)O [tyrosine, L-tyrosine] |  |  |  | able to grow |  | not utilised | not utilised |  |
| O=c1cc[nH]c(=O)[nH]1 [uracil] |  | able to grow | able to grow | able to grow |  | did not use | did not utilise | Utilisation of nutrient by K. pneumoniae from nutrient mixture (1H-NMR) ([3]; aerobic): low utilisation; Utilisation of nutrient by K. pneumoniae from nutrient mixture (1H-NMR) ([3]; anaerobic): did not utilise; Utilisation of nutrient by E. coli from nutrient mixture (1H-NMR) ([10]; aerobic): moderate utilisation; Utilisation of nutrient by E. coli from nutrient mixture (1H-NMR) ([10]; anaerobic): moderate utilisation |
| CC(C)[C@H](N)C(=O)O [valine, L-valine] | could use |  |  |  | could use |  |  | Use as sole nitrogen source to support E. coli growth ([6]; anaerobic): could use |
